In patent publication US20220041606A1, “POSITIVE ALLOSTERIC MODULATORS OF THE MUSCARINIC ACETYLCHOLINE RECEPTOR M1” (Vanderbilt University, priority 2020, published 2022):

What was measured:
human mAChR M1 [1] = target: T1, human mAChR M1 (Homo sapiens, UniProt P11229); experiment: mAChR M1 cell-based functional assay (calcium mobilization), PAM activity: increase in the EC20 acetylcholine response; conditions: CHO-K1 cells expressing hM1; potentiation of EC20 acetylcholine response
T1 construct: host or cells: CHO-K1 cells (ATCC), stably transfected using Lipofectamine2000
T1 sequence (P11229 1-460): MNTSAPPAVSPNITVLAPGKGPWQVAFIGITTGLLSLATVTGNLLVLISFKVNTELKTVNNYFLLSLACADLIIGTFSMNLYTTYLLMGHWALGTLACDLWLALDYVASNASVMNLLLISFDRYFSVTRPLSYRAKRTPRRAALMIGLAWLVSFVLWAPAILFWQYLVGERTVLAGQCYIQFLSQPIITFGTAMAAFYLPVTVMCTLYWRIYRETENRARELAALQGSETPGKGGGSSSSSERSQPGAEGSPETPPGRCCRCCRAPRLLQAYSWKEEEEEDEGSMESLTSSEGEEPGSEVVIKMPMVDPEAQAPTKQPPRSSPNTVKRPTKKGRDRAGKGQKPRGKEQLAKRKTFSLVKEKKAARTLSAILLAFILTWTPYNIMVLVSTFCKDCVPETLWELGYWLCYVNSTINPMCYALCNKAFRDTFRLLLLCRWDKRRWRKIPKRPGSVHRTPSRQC
Outline: (§1)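 CHO-K1 cells stably expressing hM1, loaded with Fluo-4 AM; calcium flux read on FDSS 6000. Compound (11-point, 1:3 CRC) added at 4 s, EC20 acetylcholine at 144 s, EC80 at 230 s; agonism from response to compound alone, PAM from increase in EC20 response; Emax relative to acetylcholine maximum, four-parameter fit.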

human mAChR M1 [2] = target: T1, human mAChR M1; experiment: mAChR M1 cell-based functional assay (calcium mobilization), agonist activity upon compound addition; conditions: CHO-K1 cells expressing hM1; for EC50: compound alone, before acetylcholine addition; for Emax: relative to the maximum for acetylcholine
Outline: as §1

Row | Compound | EC50 (human mAChR M1 [1]) | Emax (human mAChR M1 [1]) | EC50 (human mAChR M1 [2]) | Emax (human mAChR M1 [2])
1 | Cn1ccc(-c2ccc(Cn3cc(C(=O)N[C@H]4CCCC[C@@H]4O)c4sccc4c3=O)c(F)c2)n1 [Compound D27, 5-(2-fluoro-4-(1-methyl-1H-pyrazol-3-yl)benzyl)-N-((1S,2S)-2-hydroxycyclohexyl)-4-oxo-4,5-dihydrothieno[3,2-c]pyridine-7-carboxamide] | > 10 µM | 37% | > 10 µM | < 5%
2 | Cn1cc2c(-c3cc(F)c(Cn4cc(C(=O)N[C@H]5CCOC[C@@H]5O)c5nccnc5c4=O)c(F)c3)cccc2n1 [Compound A66, 6-(2,6-difluoro-4-(2-methyl-2H-indazol-4-yl)benzyl)-N-((3R,4S)-3-hydroxytetrahydro-2H-pyran-4-yl)-5-oxo-5,6-dihydropyrido[3,4-b]pyrazine-8-carboxamide] | 0.28 µM | 72% | 5 µM | 46%
3 | Cn1cc2c(-c3cc(F)c(Cn4cc(C(=O)N[C@H]5CCOC[C@@H]5O)c5ncncc5c4=O)c(F)c3)cccc2n1 [Compound A84, 6-(2,6-difluoro-4-(2-methyl-2H-indazol-4-yl)benzyl)-N-((3R,4S)-3-hydroxytetrahydro-2H-pyran-4-yl)-5-oxo-5,6-dihydropyrido[4,3-d]pyrimidine-8-carboxamide] | ≥ 10 µM | 40% | > 10 µM | < 5%
